Measured values: PubChem BioAssay AID1963840 (Molecular Pharmacology Branch, DTP, NCI, 2024)

Test system: 695427-040-R-J1-PDC complex spheroid viability
Test: Anticancer human tumor 695427-040-R-J1-PDC patient-derived colon adenocarcinoma cell line growth inhibition [POLQ]
Details: for IC50: curve of first compound; for viability, T/C: stronger effect = lower value; active = viability on the fitted dose curve at most 10% of control; inactive = the rest
Outline: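 Complex spheroid viability model combining PDC tumour cells with endothelial (HUVEC) and MSC stromal cells. Novobiocin, ART-558 or RP6685 were tested singly and in combination with standard and investigational anticancer drugs. Each was titrated in half-log steps from near clinical Cmax, or from 10 microM where Cmax was unknown.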

[1] = second compound 0.0316 µM, first compound 0.0316 µM
[2] = second compound 0.0316 µM, first compound 0.1 µM
[3] = second compound 0.0316 µM, first compound 0.316 µM
[4] = second compound 0.0316 µM, first compound 1 µM
[5] = second compound 0.0316 µM, first compound 3.16 µM
[6] = second compound 0.0316 µM, first compound 10 µM
[7] = second compound 0.1 µM, first compound 0.0316 µM
[8] = second compound 0.1 µM, first compound 0.1 µM
[9] = second compound 0.1 µM, first compound 0.316 µM
[10] = second compound 0.1 µM, first compound 1 µM
[11] = second compound 0.1 µM, first compound 3.16 µM
[12] = second compound 0.1 µM, first compound 10 µM
[13] = second compound 0.316 µM, first compound 0.0316 µM
[14] = second compound 0.316 µM, first compound 0.1 µM
[15] = second compound 0.316 µM, first compound 0.316 µM
[16] = second compound 0.316 µM, first compound 1 µM
[17] = second compound 0.316 µM, first compound 3.16 µM
[18] = second compound 0.316 µM, first compound 10 µM
[19] = second compound 1 µM, first compound 0.0316 µM
[20] = second compound 1 µM, first compound 0.1 µM
[21] = second compound 1 µM, first compound 0.316 µM
[22] = second compound 1 µM, first compound 1 µM
[23] = second compound 1 µM, first compound 3.16 µM
[24] = second compound 1 µM, first compound 10 µM
[25] = second compound 3.16 µM, first compound 0.0316 µM
[26] = second compound 3.16 µM, first compound 0.1 µM
[27] = second compound 3.16 µM, first compound 0.316 µM
[28] = second compound 3.16 µM, first compound 1 µM
[29] = second compound 3.16 µM, first compound 3.16 µM
[30] = second compound 3.16 µM, first compound 10 µM
[31] = second compound 10 µM, first compound 0.0316 µM
[32] = second compound 10 µM, first compound 0.1 µM
[33] = second compound 10 µM, first compound 0.316 µM
[34] = second compound 10 µM, first compound 1 µM
[35] = second compound 10 µM, first compound 3.16 µM
[36] = second compound 10 µM, first compound 10 µM
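Also: spheroids exposed to compounds for seven days.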
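For viability, T/C in this document: 100% = DMSO vehicle control viability.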

C#Cc1c(F)ccc2cc(O)cc(-c3ncc4c(N5CC6CCC(C5)N6)nc(OCC56CCCN5CC(F)C6)nc4c3F)c12 (centres undefined) + Nc1ccc(C#CCN(C(=O)Cc2ncc(C(F)(F)F)cc2C(F)(F)F)c2ccc(F)cc2)nn1
> 10 µM: IC50 (second compound 0.0316 µM) | IC50 (second compound 0.1 µM) | IC50 (second compound 0.316 µM) | IC50 (second compound 1 µM) | IC50 (second compound 3.16 µM) | IC50 (second compound 10 µM)
inactive: viability, T/C [1] 104% | viability, T/C [2] 102% | viability, T/C [3] 106% | viability, T/C [4] 97.9% | viability, T/C [5] 102% | viability, T/C [6] 88.7% | viability, T/C [7] 118% | viability, T/C [8] 96.9% | viability, T/C [9] 105% | viability, T/C [10] 98.9% | viability, T/C [11] 96.9% | viability, T/C [12] 89.4% | viability, T/C [13] 109% | viability, T/C [14] 105% | viability, T/C [15] 92.3% | viability, T/C [16] 101% | viability, T/C [17] 99.4% | viability, T/C [18] 78.9% | viability, T/C [19] 107% | viability, T/C [20] 95.5% | viability, T/C [21] 97.2% | viability, T/C [22] 108% | viability, T/C [23] 103% | viability, T/C [24] 79.6% | viability, T/C [25] 94.5% | viability, T/C [26] 94.9% | viability, T/C [27] 105% | viability, T/C [28] 86.7% | viability, T/C [29] 96% | viability, T/C [30] 84.6% | viability, T/C [31] 92% | viability, T/C [32] 104% | viability, T/C [33] 86.9% | viability, T/C [34] 83.6% | viability, T/C [35] 73.7% | viability, T/C [36] 69.3%

CC1COCCN1c1cc(C2(O)CC3CCC(C2)O3)c2cnn(-c3ccn[nH]3)c2n1 (centres undefined) + Nc1ccc(C#CCN(C(=O)Cc2ncc(C(F)(F)F)cc2C(F)(F)F)c2ccc(F)cc2)nn1
inactive: viability, T/C [1] 103% | viability, T/C [2] 92.9% | viability, T/C [3] 83% | viability, T/C [4] 78.6% | viability, T/C [5] 65.9% | viability, T/C [6] 60.5% | viability, T/C [7] 111% | viability, T/C [8] 96.5% | viability, T/C [9] 88% | viability, T/C [10] 76.3% | viability, T/C [11] 69% | viability, T/C [12] 56.3% | viability, T/C [13] 99.4% | viability, T/C [14] 96.7% | viability, T/C [15] 76.7% | viability, T/C [16] 72.4% | viability, T/C [17] 70.3% | viability, T/C [18] 54.5% | viability, T/C [19] 106% | viability, T/C [20] 95.3% | viability, T/C [21] 84% | viability, T/C [22] 70.5% | viability, T/C [23] 66.4% | viability, T/C [24] 49.5% | viability, T/C [25] 104% | viability, T/C [26] 87% | viability, T/C [27] 86.4% | viability, T/C [28] 66.6% | viability, T/C [29] 62.4% | viability, T/C [30] 58.6% | viability, T/C [31] 106% | viability, T/C [32] 91.2% | viability, T/C [33] 78.3% | viability, T/C [34] 65.1% | viability, T/C [35] 58.9% | viability, T/C [36] 56.9%
> 10 µM: IC50 (second compound 0.0316 µM) | IC50 (second compound 0.1 µM) | IC50 (second compound 0.316 µM) | IC50 (second compound 1 µM) | IC50 (second compound 3.16 µM) | IC50 (second compound 10 µM)
